What was measured:
[1] = test system: larva of Cnaphalocrocis medinalis Guenee; assay: Test against larva of Cnaphalocrocis medinalis Guenee (systemic, root uptake by paddy rice); type: in vivo; settings: 20 ppm concentration of effective component; rice root parts in diluted solution, foliage fed to second instar larvae; after 7 days; 25° C.
Text: Test Against Larva of Cnaphalocrocis medinalis Guenee Root parts of paddy rice (variety: […]) cultivated to 4 to 5 leaf stage were put in a brown bottle filled with the diluted aqueous solution of the prescribed concentration of the active compound prepared in the same manner as in the above-mentioned Biological Test Example 1. Three days after the treatment with the agent, 1⁄3 amount of rice plant was collected and their foliage part was cut in 4 to 5 cm length, which were put in a dish with 9 cm diameter with a sheet of filter paper wetted with 2 mL of water. Five larvae of Cnaphalocrocis medinalis Guenee at the second instar were put in the dish which was placed in a room at constant temperature of 25° C. After 2 and 4 days, each rest (each 1⁄3 amount) of foliage parts of rice plant were cut in the same manner and added to the dish. After 7 days the number of dead larvae was counted and the rate of death was calculated. In this test the results of 2 dishes at 1 section were averaged.

[2] = test system: larva of Spodoptera litura; assay: Test against larva of Spodoptera litura (leaf dip, sweet potato leaves); type: in vivo; settings: 20 ppm concentration of effective component; third instar larvae on treated sweet potato leaves; after 7 days; 25° C.
Method: Test against larva of Spodoptera litura
In order to make an appropriate formulation of an active compound 1 part by weight of the active compound was mixed with the above-mentioned amount of solvent containing the above-mentioned amount of emulsifier and the mixture was diluted with water to a prescribed concentration.
Leaves of sweet potato were soaked in the test agent diluted to a prescribed concentration with water, dried in the air and put in a dish of 9 cm diameter. 10 larvae of Spodoptera litura at the third instar were placed on the leaves and kept in a room at constant temperature of 25° C. After 2 and 4 days further leaves of sweet potato were added and after 7 days the number of dead larvae was counted and the rate of death was calculated.
In this test the results of 2 dishes at 1 section were averaged.

| SMILES | rate of death [1] [%] | rate of death [2] [%] |
| --- | --- | --- |
| CSCC(C)NC(=O)c1c(OS(C)(=O)=O)cccc1C(=O)Nc1ccc(C(F)(C(F)(F)F)C(F)(F)F)cc1 (centres unmarked) [compound 5, N^1-(4-heptafluoroisopropylphenyl)-N^2-[1-methyl-2-(methylthio)ethyl]-3-methanesulfonyloxyphthalamide] | 100 | 100 |
| CSCC(C)NC(=O)c1c(OS(C)(=O)=O)cccc1C(=O)Nc1ccc(OC(F)(F)F)cc1C (centres unmarked) [compound 6, N^2-[1-methyl-2-(methylthio)ethyl]-N^1-(4-trifluoromethoxy-2-methylphenyl)-3-methanesulfonyloxyphthalamide] | – | 100 |
| CSCC(C)NC(=O)c1c(OS(C)(=O)=O)cccc1C(=O)Nc1ccc(C(F)(C(F)(F)F)C(F)(F)F)cc1C (centres unmarked) [compound 7, N^1-(4-heptafluoroisopropyl-2-methylphenyl)-N^2-[1-methyl-2-(methylthio)-ethyl]-3-methanesulfonyloxyphthalamide] | 100 | 100 |
| CSCC(C)(C)NC(=O)c1c(OS(C)(=O)=O)cccc1C(=O)Nc1ccc(C(F)(C(F)(F)F)C(F)(F)F)cc1C [compound 10, N^2-[1,1-dimethyl-2-(methylthio)ethyl]-N^1-(4-heptafluoroisopropyl-2-methylphenyl)-3-methanesulfonyloxyphthalamide] | 100 | 100 |
| Cc1cc(C(F)(C(F)(F)F)C(F)(F)F)ccc1NC(=O)c1cccc(OS(C)(=O)=O)c1C(=O)NC(C)(C)C[S+](C)[O-] (centres unmarked) [compound 11, N^2-[1,1-dimethyl-2-(methylsulfinyl)ethyl]-N^1-(4-heptafluoroisopropyl-2-methylphenyl)-3-methanesulfonyloxyphthalamide] | 100 | 100 |
| Cc1cc(C(F)(C(F)(F)F)C(F)(F)F)ccc1NC(=O)c1cccc(OS(C)(=O)=O)c1C(=O)NC(C)(C)CS(C)(=O)=O [compound 12, N^2-[1,1-dimethyl-2-(methylsulfonyl)ethyl]-N^1-(4-heptafluoroisopropyl-2-methylphenyl)-3-methanesulfonyloxyphthalamide] | 100 | 100 |
| CCS(=O)(=O)Oc1cccc(C(=O)Nc2ccc(C(F)(C(F)(F)F)C(F)(F)F)cc2C)c1C(=O)NC(C)CSC (centres unmarked) [compound 14, N^1-(4-heptafluoroisopropyl-2-methylphenyl)-N^2-[1-methyl-2-(methylthio)ethyl]-3-ethanesulfonyloxyphthalamide] | – | 100 |
| CCS(=O)(=O)Oc1cccc(C(=O)Nc2ccc(C(F)(C(F)(F)F)C(F)(F)F)cc2C)c1C(=O)NC(C)(C)CSC [compound 17, N^2-[1,1-dimethyl-2-(methylthio)ethyl]-N^1-(4-heptafluoroisopropyl-2-methylphenyl)-3-ethanesulfonyloxyphthalamide] | – | 100 |
| CSCC(C)NC(=O)c1c(OS(=O)(=O)C(F)(F)F)cccc1C(=O)Nc1ccc(C(F)(C(F)(F)F)C(F)(F)F)cc1C (centres unmarked) [compound 21, N^1-(4-heptafluoroisopropyl-2-methylphenyl)-N^2-[1-methyl-2-(methylthio)ethyl]-3-trifluoromethanesulfonyloxyphthalamide] | – | 100 |
| CSCC(C)(C)NC(=O)c1c(OS(C)(=O)=O)cccc1C(=O)Nc1ccc(Cl)c(Cl)c1Cl [compound 24, N^2-[1,1-dimethyl-2-(methylthio)ethyl]-N^1-(2,3,4-trichlorophenyl)-3-methanesulfonyloxyphthalamide] | – | 100 |
| Cc1cc(C(F)(C(F)(F)F)C(F)(F)F)ccc1NC(=O)c1cccc(OS(C)(=O)=O)c1C(=O)NC(C)C [compound no. 1, N^1(4-heptafluoroisopropyl-2-methylphenyl)-N-2-isopropyl-3-methanesulfonyloxyphthalamide] | 100 | 100 |

Source: patent US7132455B2, “Phthalamide derivatives” (Bayer Cropscience AG, priority 2002, dated 2006)
